Results from patent US4518789A, “Phenyl alpha-acyloxyacetamide derivatives and their therapeutic use” (priority 1983, dated 1985).

What follows are molecules tested on Eczemas, and Other Pruritic Disorders (assay: Topical anti-pruritic effect in patients with pruritic disorders). Settings: 2 to 5%, after initial anti-pruritic effect.
Format: in vivo, human
Description: Patients with various kinds of pruritic disorders participated in this study. The cases included atopic eczema, patchy eczema, chronic eczema of the hands, lichen simplex chronicus, contact allergic eczema, pruritus of the aged, pruritus of hepatic origin, pruritus ani, pruritus vulvae, scalp pruritus and pruritus of other disorders such as mycosis fungoides, psoriasis and pityriasis rubra pilaris.
Therapeutic compositions containing phenyl-alpha-acyloxyacetamides at 2 to 5% concentrations in cream, ointment, lotion or solution were prepared according to the Examples. The medicinal compositions were topically applied by the patient in an amount sufficient to cover the itching area of skin. Applications were made one to two times daily or as frequently as necessary and without occlusive dressings.
Two parameters have been used to compare degrees of anti-pruritic effect of phenyl-alpha-acyloxyacetamides. The first parameter is whether the relief of itching is complete (2+) or incomplete (1+). The second parameter is the number of hours the patient stays free of pruritus after the initial anti-pruritic effect. […] Therefore, the overall anti-pruritic effect of a compound may range from 2+ to 4+. […] 4+ for complete relief and lasting for more than 8 hours.
For CCC(=O)OC(C(=O)NCCc1ccccc1)(c1ccccc1)c1ccccc1 [N-phenethyl diphenyl-alpha-propionyloxyacetamide], the “duration of anti-pruritic effect” value was “less than 8 hours”.

Same assay, conditions: all patients tested
CCC(=O)OC(C(=O)NCCc1ccccc1)(c1ccccc1)c1ccccc1 [N-phenethyl diphenyl-alpha-propionyloxyacetamide] was tested, and the “relief of itching (in words)” value was “completely abolished itch sensations”.

Same assay, conditions: first category compounds, 2 to 5%
With CC(=O)OC(C(=O)N(Cc1ccccc1)Cc1ccccc1)c1ccccc1 (stereo not drawn) [N,N-dibenzyl phenyl-alpha-acetoxyacetamide] the “Anti-pruritic Effect” value was 3+.
In the case of CCN(CC)C(=O)C(OC(C)=O)c1ccccc1 (stereo not drawn) [N,N-diethyl phenyl-alpha-acetoxyacetamide], the “Anti-pruritic Effect” value is reported as 4+ (complete relief and lasting for more than 8 hours).
For COc1ccc(CCNC(=O)C(OC(C)=O)c2ccccc2)cc1OC (stereo not drawn) [N-(3,4 -dimethoxyphenethyl)phenyl-alpha-acetoxyacetamide], the “Anti-pruritic Effect” value was 4+ (complete relief and lasting for more than 8 hours).
CC(=O)OC(C(=O)NCc1ccccc1)c1ccccc1 (stereo not drawn) [N-benzyl phenyl-alpha-acetoxyacetamide] was tested, and the “Anti-pruritic Effect” value was 4+ (complete relief and lasting for more than 8 hours).
In the case of CCNC(=O)C(OC(=O)Cc1ccccc1)c1ccccc1 (stereo not drawn) [N-ethyl phenyl-alpha-phenylacetoxyacetamide], the “Anti-pruritic Effect” value is reported as 4+ (complete relief and lasting for more than 8 hours).
CC(=O)OC(C(=O)NCCSCCO)c1ccccc1 (stereo not drawn) [N-hydroxyethylthioethylphenyl-alpha-acetoxyacetamide] was tested, and the “Anti-pruritic Effect” value was 3+.
For CC(=O)OC(C(=O)NC(C)C)c1ccccc1 (stereo not drawn) [N-isopropyl phenyl-alpha-acetoxyacetamide], the “Anti-pruritic Effect” value was 3+.
CNC(=O)C(OC(C)=O)c1ccccc1 (stereo not drawn) [N-methyl phenyl alpha-acetoxyacetamide] was tested, and the “Anti-pruritic Effect” value was 3+.
In the case of CC(=O)OC(C(=O)NCc1ccc(Cl)cc1)c1ccccc1 (stereo not drawn) [N-p-chlorobenzyl phenyl-alpha-acetoxyacetamide], the “Anti-pruritic Effect” value is reported as 4+ (complete relief and lasting for more than 8 hours).
With COc1ccc(CNC(=O)C(OC(C)=O)c2ccccc2)cc1 (stereo not drawn) [N-p-methoxybenzyl phenyl-alpha-acetoxyacetamide] the “Anti-pruritic Effect” value was 4+ (complete relief and lasting for more than 8 hours).
With COc1ccc(CCNC(=O)C(OC(C)=O)c2ccccc2)cc1 (stereo not drawn) [N-p-methoxyphenethyl phenyl-alpha-acetoxyacetamide] the “Anti-pruritic Effect” value was 4+ (complete relief and lasting for more than 8 hours).
CCC(=O)OC(C(=O)NCCc1ccccc1)c1ccccc1 (stereo not drawn) [N-phenethyl phenyl-alpha-propionyloxyacetamide] was tested, and the “Anti-pruritic Effect” value was 3+.
CC(=O)OC(C(=O)NC(C)(C)C)c1ccccc1 (stereo not drawn) [N-t-butyl phenyl-alpha-acetoxyacetamide] was tested, and the “Anti-pruritic Effect” value was 4+ (complete relief and lasting for more than 8 hours).

Same assay, conditions: intermediate and related compounds
With CC(=O)OC(C(=O)NCc1cccnc1)c1ccccc1 (stereo not drawn) [N-3'-picolyl phenyl-alpha-acetoxyacetamide] the “Anti-pruritic Effect” value was 3+.
With CCN(CC)CCNC(=O)C(OC(C)=O)c1ccccc1 (stereo not drawn) [N-(N',N'-diethylaminoethyl)phenyl-alpha-acetoxyacetamide] the “Anti-pruritic Effect” value was 3+.
CC(=O)OC(C(=O)OC(C(=O)NCCc1ccccc1)c1ccccc1)c1ccccc1 (stereo not drawn) [N-phenethyl phenyl-alpha-(o-acetylmandeloyloxy)acetamide] was tested, and the “Anti-pruritic Effect” value was 3+.
With O=C(NCCc1ccccc1)C(O)c1ccccc1 (stereo not drawn) [N-phenethyl phenyl-alpha-hydroxyacetamide] the “Anti-pruritic Effect” value was 3+.

The molecules below were run on calming or sedative effects (assay: Tranquilizing effect, oral administration in dogs). Settings: not given.
Format: in vivo
Description: Hairless mice, white hairy mice and dogs were used in these studies.
Three dogs weighing between 10 to 20 kg were given orally N-phenethyl phenyl-alpha-acetoxyacetamide or N-ethyl phenyl-alpha-acetoxyacetamide in gelating capsules at doses of 5 to 10 mg per kg.
For CN(C)CCOC(c1ccccc1)c1ccccc1 [Benadryl], the “soporific or drowsy effects” value was “soporific and drowsy effects”.
For CN1C(=O)CN=C(c2ccccc2)c2cc(Cl)ccc21 [Valium], the “soporific or drowsy effects” value was “soporific and drowsy effects”.

Same assay, conditions: test compounds 5 to 10 mg per kg
For CN(C)CCOC(c1ccccc1)c1ccccc1 [Benadryl], the “tranquilizing / sedative effect” value was “substantial sedative effects”.
For CN1C(=O)CN=C(c2ccccc2)c2cc(Cl)ccc21 [Valium], the “tranquilizing / sedative effect” value was “substantial sedative effects”.

What follows are molecules tested on itch provoked by papain or histamine dihydrochloride (assay: Anti-pruritic effect on normal human skin (papain or histamine induced itch)). Settings: 2 to 5% topical, normal human adult volunteers.
Format: in vivo
Description: Itch provoking pruritic compositions were prepared as follows: papain 0.5% solution was prepared by dissolving papain 50 mg in 10 ml of saline, and histamine 0.2% solution was prepared by dissolving histamine dihydrochloride 20 mg in 10 ml of saline. Itching was provoked or induced as follows: a pruritic composition in a volume of 0.05 ml containing papain or histamine dihydrochloride as a pruritic agent was topically applied on the flexor forearm of normal human adult volunteers and the skin site was gently pricked rapidly through the solution with a 26-gauge needle to the level of the papillary dermis as described by Bernstein et al. (J. E. Bernstein, R. M. Swift, K. Soltani and A. L. Lorincz: Antipruritic Effect of an Opiate Antagonist, Naloxone Hydrochloride in Journal of Investigative Dermatology 78, 82-83, 1982). This technique provoked or induced itch sensation at the test skin site within a few minutes following the topical application of the pruritic composition. After itch sensation had been induced a composition containing 2 to 5% N-ethyl phenyl-alpha-acetoxyacetamide, N-phenethyl phenyl-alpha-acetoxyacetamide or other phenyl-alpha-acyloxyacetamide derivatives of the instant invention was topically applied on the pruritic skin site. The vehicle alone cream containing no active ingredient was used as a control.
In the case of CC(=O)OC(C(=O)NCCc1ccccc1)(c1ccccc1)c1ccccc1 [N-phenethyl diphenyl-alpha-acetoxyacetamide], the Anti-pruritic Effect is reported as “substantial anti-pruritic effect”.
